Measured values taken from US20130210846A1, “USE OF NOVEL PAN-CDK INHIBITORS FOR TREATING TUMORS” (BAYER INTELLECTUAL PROPERTY GMBH, priority 2010, published 2013).

Tests used:
CDK1/CycB = biological target: T1, CDK1/CycB (Homo sapiens, UniProt P06493); test: CDK1/CycB kinase assay (Assay 1); format: biochemical; settings: 0.5 μM ATP, histon IIIS, 10 min 22° C.; read-out: CDK1/CycB (Assay 1) Concentration for half-maximal inhibition of the enzyme activity, IC50
T1 construct: purchased ProQinase GmbH, Freiburg, Germany; host or cells: baculovirus-infected insect cells (Sf9)
Experimental: Recombinant CDK1 and CycB-GST fusion proteins, purified from baculovirus-infected insect cells (Sf9), were purchased from ProQinase GmbH, Freiburg, Germany. The histon HIS used as kinase substrate is commercially available from Sigma.
CDK1/CycB (200 ng/measuring point) was incubated for 10 min at 22° C. in the presence of various concentrations of test substances (0 μM, and within the range 0.01-100 μM) in assay buffer [50 mM Tris/HCl pH8.0, 10 mM MgCl2, 0.1 mM Na ortho-vanadate, 1.0 mM dithiothreitol, 0.5 μM adenosine triphosphate (ATP), 10 μg/measuring point histon IIIS, 0.2 μCi/measuring point ^33P-gamma ATP, 0.05% NP40, 1.25% dimethyl sulfoxide]. The reaction was stopped by adding EDTA solution (250 mM, pH 8.0, 15 μl/measuring point).
From each reaction mixture, 15 μl were applied to P30 filter strips (from Wallac), and unincorporated ^33P-ATP was removed by washing the filter strips three times, for 10 min each time, in 0.5% phosphoric acid. After drying the filter strips for 1 hour at 70° C., the filter strips were covered with scintillator strips (MeltiLex™ A, from Wallac) and stoved for 1 hour at 90° C. The amount of incorporated ^33P (substrate phosphorylation) was determined by scintillation measurement in a gamma-radiation measuring instrument (Wallac). The measured data were standardized to 0% inhibition (enzyme reaction without inhibitor) and 100% inhibition (all assay components except enzyme). The IC50 values were determined by means of a 4-parameter fit using the company's own software.

SK-BR-3 = test: Proliferation assay SK-BR-3; format: cell-based; settings: Homo sapiens, 96 h; SK-BR-3, estrogen receptor-negative mamma carcinoma; 4 days, crystal violet
Experimental: (§1) Cultivated human tumor cells (originally obtained from ATCC, HeLa-MaTu and HeLa-MaTu-ADR, originally obtained from Epo GmbH, Berlin, Germany) were plated at a density of 1000 to 5000 cells/measuring point, depending on the growth rate of the cell line, in a 96-well multititer plate in 200 μl of growth medium (DMEM/HAMS F12, 2 mM L-glutamine, 10% fetal calf serum). After 24 hours the cells of one plate (zero-point plate) were stained with crystal violet (see below), whereas the medium of the other plates was replaced with fresh culture medium (200 μl), to which the test substances had been added at various concentrations (0 μM, and in the range 0.01-30 μM; the final concentration of the solvent dimethyl sulfoxide was 0.5%). The cells were incubated for 4 days in the presence of the test substances. Cellular proliferation was determined by staining the cells with crystal violet: the cells were fixed by adding 20 μl/measuring point of an 11% glutaraldehyde solution for 15 min at room temperature. After washing the fixed cells with water three times, the plates were dried at room temperature. The cells were stained by adding 100 μl/measuring point of a 0.1% crystal violet solution (pH adjusted to pH3 by adding acetic acid). After washing the stained cells with water three times, the plates were dried at room temperature. The dye was dissolved by adding 100 μl/measuring point of a 10% acetic acid solution. The extinction was determined photometrically at a wavelength of 595 nm. The percentage change in cell growth was calculated by standardization of the measured values to the extinction values of the zero-point plate (=0%) and the extinction of the untreated (0 μM) cells (=100%). The measured data were standardized to 0% inhibition (cell proliferation without inhibitor) and 100% inhibition (zero-point plate). The IC50 values were determined by means of a 4-parameter fit using the company's own software.
(§2) The substances were examined in the following cell lines which, in an exemplary manner, represent the stated indications: […]

MDA-MB 453 = test: Proliferation assay MDA-MB 453; format: cell-based; settings: Homo sapiens, 96 h; MDA-MB 453, estrogen receptor-negative mamma carcinoma; 4 days, crystal violet
Experimental: as §1, §2

HT29 = test: Proliferation assay HT29; format: cell-based; settings: Homo sapiens, HT-29, 96 h; HT29, colon/rectum carcinoma; 4 days, crystal violet
Experimental: as §1, §2

Caco-2 = test: Proliferation assay Caco-2; format: cell-based, human; settings: Caco-2, colon/rectum carcinoma, 4 days, crystal violet
Method in brief: (§3)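 Seed 1000–5000 cells/well, 24 h attach; fix zero-point plate. Replace medium with compound (0.01–30 μM, 0.5% DMSO), incubate 4 d. Glutaraldehyde fix, crystal violet stain, acetic acid elution, read 595 nm; IC50 by 4-parameter fit.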

HCT116 = test: Proliferation assay HCT116; format: cell-based; settings: Homo sapiens, HCT-116, 96 h; HCT116, colon/rectum carcinoma; 4 days, crystal violet
Experimental: as §1, §2

PC3 = test: Proliferation assay PC3; format: cell-based; settings: Homo sapiens, PC-3, 96 h; PC3, prostate carcinoma; 4 days, crystal violet
Experimental: as §1, §2

A549 = test: Proliferation assay A549; format: cell-based; settings: Homo sapiens, 96 h; A549, non-small-cell bronchial carcinoma; 4 days, crystal violet
Experimental: as §1, §2

H1975 = test: Proliferation assay H1975; format: cell-based; settings: Homo sapiens, NCI-H1975, 96 h; H1975, non-small-cell bronchial carcinoma; 4 days, crystal violet
Experimental: as §1, §2

HeLa-MaTu-ADR = test: Proliferation assay HeLa-MaTu-ADR; format: cell-based, human; settings: cervix carcinoma, 4 days, crystal violet
Method in brief: as §3

MOLM-13 = test: Proliferation assay MOLM-13; format: cell-based; settings: Homo sapiens, 96 h; MOLM-13, leukemia; 4 days, crystal violet
Experimental: as §1, with “After washing the fixed cells with water three times, the plates were dried at room temperature. The cells were stained by adding 100 μl/measuring point of a 0.1% crystal violet solution (pH adjusted to pH3 by adding acetic acid). After washing the stained cells with water three times, the plates were dried at room temperature. The dye was dissolved by adding 100 μl/measuring point of a 10% acetic acid solution.” left out, “The measured data were standardized to 0% inhibition (cell proliferation without inhibitor) and 100% inhibition (zero-point plate).” left out, “software. […]” for “software.”

T1 sequence (P06493 whole entry): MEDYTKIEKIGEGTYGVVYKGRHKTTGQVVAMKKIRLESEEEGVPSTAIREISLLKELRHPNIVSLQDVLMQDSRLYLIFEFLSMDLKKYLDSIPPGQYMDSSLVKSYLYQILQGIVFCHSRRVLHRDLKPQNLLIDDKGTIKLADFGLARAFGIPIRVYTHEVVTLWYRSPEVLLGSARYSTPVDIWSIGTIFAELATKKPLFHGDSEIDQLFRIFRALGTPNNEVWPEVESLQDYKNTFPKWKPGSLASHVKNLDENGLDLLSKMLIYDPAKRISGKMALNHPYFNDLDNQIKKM
T1 sequence (P14635 whole entry partner): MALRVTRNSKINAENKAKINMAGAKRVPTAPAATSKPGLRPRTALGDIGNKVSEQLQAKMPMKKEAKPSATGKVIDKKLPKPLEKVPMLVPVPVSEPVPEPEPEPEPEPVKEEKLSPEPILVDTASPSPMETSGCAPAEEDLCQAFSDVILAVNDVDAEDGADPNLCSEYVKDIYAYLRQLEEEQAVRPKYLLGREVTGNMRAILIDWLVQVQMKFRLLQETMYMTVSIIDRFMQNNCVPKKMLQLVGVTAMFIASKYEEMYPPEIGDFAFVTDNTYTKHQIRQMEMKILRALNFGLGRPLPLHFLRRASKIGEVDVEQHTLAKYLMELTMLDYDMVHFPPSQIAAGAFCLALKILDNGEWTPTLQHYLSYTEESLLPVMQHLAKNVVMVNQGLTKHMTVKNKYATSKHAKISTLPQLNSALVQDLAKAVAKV

C[C@@H](O)[C@@H](C)Nc1nc(Nc2ccc(S(=N)(=O)C3CC3)cc2)ncc1C(F)(F)F (mixture of isomers) [Example 4-SI-1, (RS)—S-Cyclopropyl-S-(4-{[4-{[(1R,2R)-2-hydroxy-1-methylpropyl]amino}-5-(trifluoromethyl)-pyrimidin-2-yl]amino}phenyl)sulfoximide]
IC50 (CDK1/CycB): 6 nM | IC50 (SK-BR-3): 33 nM | IC50 (MDA-MB 453): 11 nM | IC50 (HT29): 12 nM | IC50 (Caco-2; Homo sapiens, Caco-2, 96 h): 35 nM | IC50 (HCT116): 20 nM | IC50 (PC3): < 10 nM | IC50 (A549): < 10 nM | IC50 (H1975): 16 nM | IC50 (HeLa-MaTu-ADR; Homo sapiens, 96 h): 16 nM

C[C@@H](O)[C@@H](C)Oc1nc(Nc2ccc(S(C)(=N)=O)cc2)ncc1C(F)(F)F (mixture of isomers) [Example 2-SI-2, (RS)—S-(4-{[4-{[(1R,2R)-2-Hydroxy-1-methylpropyl]oxy}-5-(trifluoromethyl)pyrimidin-2-yl]-amino}phenyl)-S-methylsulfoximide]
IC50 (Caco-2): 24 nM | IC50 (HeLa-MaTu-ADR): 7 nM

C[C@@H](O)[C@@H](C)Oc1nc(Nc2ccc(S(C)(=N)=O)cc2)ncc1C(F)(F)F (single isomer, unassigned) [Example 2-SI-2]
IC50 (CDK1/CycB): 4 nM | IC50 (SK-BR-3): 21 nM | IC50 (MDA-MB 453): 16 nM | IC50 (HT29): 28 nM | IC50 (HCT116): 16 nM | IC50 (PC3): 27 nM | IC50 (A549): 23 nM | IC50 (H1975): 14 nM | IC50 (MOLM-13): 9 nM
